# Source: ChEMBL document CHEMBL5579851, “Synthesis and antifungal evaluation of novel triazole derivatives bearing a pyrazole-methoxyl moiety” (Eur J Med Chem, 2024)
# Columns and labels:
# Type in all cases: functional
# [1] = test system: Pichia kudriavzevii; assay: Antifungal activity against Candida krusei 4996 assessed as inhibition of fungal growth incubated for 48 hrs by CLSI based broth microdilution assay
# [2] = test system: Candida albicans; assay: Antifungal activity against Candida albicans SC5314 assessed as inhibition of fungal growth incubated for 48 hrs by CLSI based broth microdilution assay
# [3] = test system: [Candida] auris; assay: Antifungal activity against fluconazole-resistant Candida auris 891 assessed as inhibition of fungal growth incubated for 48 hrs by CLSI based broth microdilution assay; conditions: Candidozyma auris
# [4] = test system: Candida albicans; assay: Antifungal activity against fluconazole-resistant Candida albicans 901 assessed as inhibition of fungal growth incubated for 48 hrs by CLSI based broth microdilution assay
# [5] = test system: Candida tropicalis; assay: Antifungal activity against Candida tropicalis 8915 assessed as inhibition of fungal growth incubated for 48 hrs by CLSI based broth microdilution assay
# [6] = test system: Nakaseomyces glabratus; assay: Antifungal activity against Candida glabrata 537 assessed as inhibition of fungal growth incubated for 48 hrs by CLSI based broth microdilution assay
# [7] = test system: Candida albicans; assay: Antifungal activity against Candida albicans 10231 assessed as inhibition of fungal growth incubated for 48 hrs by CLSI based broth microdilution assay
# [8] = test system: Cryptococcus neoformans; assay: Antifungal activity against Cryptococcus neoformans 32609 assessed as inhibition of fungal growth incubated for 72 hrs by CLSI based broth microdilution assay
# [9] = test system: Candida parapsilosis; assay: Antifungal activity against Candida parapsilosis 22019 assessed as inhibition of fungal growth incubated for 48 hrs by CLSI based broth microdilution assay; conditions: Lodderomyces parapsilosis
# [10] = test system: [Candida] auris; assay: Antifungal activity against fluconazole-resistant Candida auris 918 assessed as inhibition of fungal growth incubated for 48 hrs by CLSI based broth microdilution assay; conditions: Candidozyma auris
# [11] = test system: Candida albicans; assay: Antifungal activity against fluconazole-resistant Candida albicans 904 assessed as inhibition of fungal growth incubated for 48 hrs by CLSI based broth microdilution assay
# [12] = test system: [Candida] auris; assay: Antifungal activity against fluconazole-resistant Candida auris 919 assessed as inhibition of fungal growth incubated for 48 hrs by CLSI based broth microdilution assay; conditions: Candidozyma auris
Structure (SMILES),MIC [1] [µg/mL],MIC [2] [µg/mL],MIC [3] [µg/mL],MIC [4] [µg/mL],MIC [5] [µg/mL],MIC [6] [µg/mL],MIC [7] [µg/mL],MIC [8] [µg/mL],MIC [9] [µg/mL],MIC [10] [µg/mL],MIC [11] [µg/mL],MIC [12] [µg/mL]
C[C@@H](OCc1ccn(Cc2ccc(I)cc2)n1)[C@](O)(Cn1cncn1)c1ccc(F)cc1F,2,≤ 0.125,16,8,0.5,≤ 0.125,≤ 0.125,0.25,0.25,16,16,4
C[C@@H](OCc1ccn(Cc2cc(Cl)ccc2Cl)n1)[C@](O)(Cn1cncn1)c1ccc(F)cc1F,4,0.25,–,–,32,0.5,0.5,0.25,1,–,–,–
C[C@@H](OCc1ccn(Cc2cccc(F)c2F)n1)[C@](O)(Cn1cncn1)c1ccc(F)cc1F,8,≤ 0.125,–,–,0.25,0.25,0.25,0.5,0.5,–,–,–
Cc1ccc(Cn2ccc(CO[C@H](C)[C@](O)(Cn3cncn3)c3ccc(F)cc3F)n2)cc1,2,≤ 0.125,–,–,16,2,0.25,0.5,0.25,–,–,–
COc1ccc(Cn2ccc(CO[C@H](C)[C@](O)(Cn3cncn3)c3ccc(F)cc3F)n2)cc1,8,≤ 0.125,–,–,> 64,0.5,0.25,0.5,1,–,–,–
C[C@@H](OCc1ccn(Cc2ccc(Cl)cc2F)n1)[C@](O)(Cn1cncn1)c1ccc(F)cc1F,2,≤ 0.125,8,16,0.5,0.25,0.25,0.25,0.5,32,8,16
Cc1cccc(Cn2ccc(CO[C@H](C)[C@](O)(Cn3cncn3)c3ccc(F)cc3F)n2)c1,8,≤ 0.125,–,–,> 64,4,0.25,0.5,0.5,–,–,–
C[C@@H](OCc1ccn(Cc2ccc(C#N)cc2)n1)[C@](O)(Cn1cncn1)c1ccc(F)cc1F,8,≤ 0.125,–,–,0.5,1,0.25,1,0.5,–,–,–
C[C@@H](OCc1ccn(Cc2ccc(OC(F)(F)F)cc2)n1)[C@](O)(Cn1cncn1)c1ccc(F)cc1F,2,0.25,–,–,0.5,2,0.25,0.5,0.5,–,–,–
C[C@@H](OCc1ccn(Cc2cc(F)ccc2F)n1)[C@](O)(Cn1cncn1)c1ccc(F)cc1F,4,≤ 0.125,16,> 64,0.25,0.25,0.25,0.5,0.5,32,> 64,32
C[C@@H](OCc1ccn(Cc2ccccc2F)n1)[C@](O)(Cn1cncn1)c1ccc(F)cc1F,8,≤ 0.125,–,–,~64,0.25,0.25,0.25,0.5,–,–,–
